Experimental data from patent publication US9945862B2, “Biomarkers for predicting and assessing responsiveness of thyroid and kidney cancer subjects to lenvatinib compounds” (Eisai R&D Management Co., Ltd., priority 2011, dated 2018).

Tested on: differentiated thyroid cancer patients
Experiment: Best overall response / tumor response in differentiated thyroid cancer patients treated in phase II with E7080, by tumor mutation status
Type: in vivo, human
From the text: This experiment was directed at identifying amino acid mutations that are useful in predicting whether subjects respond to treatment with E7080 using three criteria of response: best overall response, tumor shrinkage, and progression free survival.
Tissue samples were obtained at surgery before the patients had received any therapy comprising E7080 and were routinely processed with formalin fixed, paraffin embedded tissues (FFPE). The protocol that was used was approved by the institutional review board, and informed consent was obtained from each subject. Tumor tissue samples from 27 patients, for which tissues were available, were used for mutation analysis. DNA was isolated from FFPE tumor blocks collected from patients participating in the trial. Genomic DNA was extracted from two to five 10 micron unstained sections by deparaffinization and Qiagen DNA Mini Kit Tissue Protocol with minor modification. For mutation detection, the SEQUENOM® (San Diego, Calif.) platform and the OncoCarta™ Panel v1.0 and OncoCarta™ Panel v3.0 were used (see, www.sequenom.com/Files/Genetic-Analysis—Graphics/All-Application—PDFs/AssayExplorer2010_1110-Web/). Sequenom's OncoCarta™ Panels are a set of pre-designed and pre-validated assays for efficient mutation screening. The OncoCarta™ Panel v1.0 genes and the number of mutations (in parentheses) are: ABL1 (14); AKT1 (7); AKT2 (2); BRAF (25); CDK4 (2); EGFR (40); ERBB2 (9); FGFR1 (2); FGRF3 (7); FLT3 (3); HRAS (10); JAK2 (1); KIT (32); KRAS (16); MET (5); NRAS (19); PDGFRA (11); PIK3CA (14); and RET (6). The OncoCarta™ Panel v3.0 genes and the number of mutations (in parentheses) are: ABL1 (2) AKT1 (1); APC (12); BRAF (19); CDKN2A (7); CSF1R (6); CTTNB1 (28); EGFR (32); ERBB2 (2); FLT3 (3); HRAS (2); JAK3 (3); KIT (3); KRAS (5); MET (6); MLH1 (1); MYC (6); PDGFRA (11); PIK3CA (4); PTEN (14); RB1 (11); RET (13); SRC (1); STK11 (12); P53 (7); and VH1 (7). […]
DNA was amplified using the OncoCarta™ PCR primer pools, unincorporated nucleotides were inactivated by shrimp alkaline phosphatase (SAP), and a single base extension reaction was performed using extension primers that hybridize immediately adjacent to the mutations and a custom mixture of nucleotides. Salts were removed by the addition of a cation exchange resin. Multiplexed reactions were spotted onto the SpectroChipII, and mutations, if present, were resolved by MALDI-TOF on the Compact Mass Spectrometer (Sequenom®, San Diego, Calif.). The OncoCarta™ Panel v1.0 (Sequenom®, San Diego, Calif.) consists of 24 pools of primer pairs and 24 pools of extension primers, and has the capacity to detect 225 mutations in 19 genes. The OncoCarta™ Panel v 3.0 consists of 24 pools of primer pairs and 24 pools of extension primers, and has the capacity to detect 218 mutations in 26 genes. Each pool consists of 5-9 primer pairs in the PCR reaction. Two types of assays have been designed in the OncoCarta panel, referred to as simple and complex. The simple assays are those in which a single assay is able to detect the amino acid changes at that codon. The complex assays are those that require more than one assay to identify codon changes or deletions and insertion, and thus are able to detect multiple different amino acid substitutions or deletions. An example of a complex assay involves the use of the KRAS_1 and KRAS_2 assays, which interrogates 2 different nucleotide positions within codon 12 and together identify all codon 12 amino acid changes. In the KRAS G12R mutation, the mutant allele has the codon CGT (Arginine) in contrast to the wild type allele which has the GGT (Glycine) codon. […]

[1] = BRAF.KRAS.NRAS (any of gene) MU
[2] = BRAF.KRAS.NRAS (any of gene) WT
[3] = BRAF.KRAS.NRAS.VHL (any of gene) MU
[4] = BRAF.KRAS.NRAS.VHL (any of gene) WT

SMILES: COc1cc2nccc(Oc3ccc(NC(=O)NC4CC4)c(Cl)c3)c2cc1C(N)=O [E7080, 4-(3-chloro-4-(cyclopropylaminocarbonyl)aminophenoxy)-7-methoxy-6-quinolinecarboxamide]
- Number of patients with BOR PD [1]: 0
- Number of patients with BOR PR [1]: 10
- Number of patients with BOR SD [1]: 1
- Number of patients with BOR PD [2]: 2
- Number of patients with BOR PR [2]: 3
- Number of patients with BOR SD [2]: 6
- Number of patients with BOR PD [3]: 1
- Number of patients with BOR PR [3]: 10
- Number of patients with BOR SD [3]: 1
- Number of patients with BOR PD [4]: 1
- Number of patients with BOR PR [4]: 3
- Number of patients with BOR SD [4]: 6
- Number of patients with BOR PD (BRAF.KRAS.VHL (any of gene) MU): 2
- Number of patients with BOR PR (BRAF.KRAS.VHL (any of gene) MU): 8
- Number of patients with BOR SD (BRAF.KRAS.VHL (any of gene) MU): 0
- Number of patients with BOR PD (BRAF.KRAS.VHL (any of gene) WT): 0
- Number of patients with BOR PR (BRAF.KRAS.VHL (any of gene) WT): 8
- Number of patients with BOR SD (BRAF.KRAS.VHL (any of gene) WT): 5
- Number of patients with BOR PD (BRAF.NRAS (any of gene) MU): 0
- Number of patients with BOR PR (BRAF.NRAS (any of gene) MU): 8
- Number of patients with BOR SD (BRAF.NRAS (any of gene) MU): 1
- Number of patients with BOR PD (BRAF.NRAS (any of gene) WT): 2
- Number of patients with BOR PR (BRAF.NRAS (any of gene) WT): 5
- Number of patients with BOR SD (BRAF.NRAS (any of gene) WT): 6
- Number of patients with BOR PD (BRAF.VHL (any of gene) MU): 2
- Number of patients with BOR PR (BRAF.VHL (any of gene) MU): 6
- Number of patients with BOR SD (BRAF.VHL (any of gene) MU): 0
- Number of patients with BOR PD (BRAF.VHL (any of gene) WT): 0
- Number of patients with BOR PR (BRAF.VHL (any of gene) WT): 10
- Number of patients with BOR SD (BRAF.VHL (any of gene) WT): 5
- Number of patients with BOR PD (KRAS.NRAS (any of gene) MU): 0
- Number of patients with BOR PR (KRAS.NRAS (any of gene) MU): 8
- Number of patients with BOR SD (KRAS.NRAS (any of gene) MU): 0
- Number of patients with BOR PD (KRAS.NRAS (any of gene) WT): 2
- Number of patients with BOR PR (KRAS.NRAS (any of gene) WT): 5
- Number of patients with BOR SD (KRAS.NRAS (any of gene) WT): 7
- Number of patients with BOR PD (KRAS.NRAS.VHL (any of gene) MU): 1
- Number of patients with BOR PR (KRAS.NRAS.VHL (any of gene) MU): 8
- Number of patients with BOR SD (KRAS.NRAS.VHL (any of gene) MU): 0
- Number of patients with BOR PD (KRAS.NRAS.VHL (any of gene) WT): 1
- Number of patients with BOR PR (KRAS.NRAS.VHL (any of gene) WT): 5
- Number of patients with BOR SD (KRAS.NRAS.VHL (any of gene) WT): 7
- Patients with partial response (PR) (patients with either an NRAS or KRAS mutation): 8 out of 8
- Patients with partial response (PR) (patients without mutations in NRAS and KRAS): 5 out of 14
- Clinical outcome in differentiated thyroid cancer patients (phase II): Tumor response and prolonged disease stabilization were observed
